Measurements taken from article PMC4077385, “Synthesis of the first examples of iminosugar clusters based on cyclopeptoid cores” (Beilstein Journal of Organic Chemistry, 2014).
Where two headings read alike, the source gives them in different places.

Molecular target: T1, jack bean α-mannosidase (Canavalia ensiformis, UniProt C0HJB3)
T1 construct: purchased Sigma–Aldrich
T1 sequence (C0HJB3 1-981): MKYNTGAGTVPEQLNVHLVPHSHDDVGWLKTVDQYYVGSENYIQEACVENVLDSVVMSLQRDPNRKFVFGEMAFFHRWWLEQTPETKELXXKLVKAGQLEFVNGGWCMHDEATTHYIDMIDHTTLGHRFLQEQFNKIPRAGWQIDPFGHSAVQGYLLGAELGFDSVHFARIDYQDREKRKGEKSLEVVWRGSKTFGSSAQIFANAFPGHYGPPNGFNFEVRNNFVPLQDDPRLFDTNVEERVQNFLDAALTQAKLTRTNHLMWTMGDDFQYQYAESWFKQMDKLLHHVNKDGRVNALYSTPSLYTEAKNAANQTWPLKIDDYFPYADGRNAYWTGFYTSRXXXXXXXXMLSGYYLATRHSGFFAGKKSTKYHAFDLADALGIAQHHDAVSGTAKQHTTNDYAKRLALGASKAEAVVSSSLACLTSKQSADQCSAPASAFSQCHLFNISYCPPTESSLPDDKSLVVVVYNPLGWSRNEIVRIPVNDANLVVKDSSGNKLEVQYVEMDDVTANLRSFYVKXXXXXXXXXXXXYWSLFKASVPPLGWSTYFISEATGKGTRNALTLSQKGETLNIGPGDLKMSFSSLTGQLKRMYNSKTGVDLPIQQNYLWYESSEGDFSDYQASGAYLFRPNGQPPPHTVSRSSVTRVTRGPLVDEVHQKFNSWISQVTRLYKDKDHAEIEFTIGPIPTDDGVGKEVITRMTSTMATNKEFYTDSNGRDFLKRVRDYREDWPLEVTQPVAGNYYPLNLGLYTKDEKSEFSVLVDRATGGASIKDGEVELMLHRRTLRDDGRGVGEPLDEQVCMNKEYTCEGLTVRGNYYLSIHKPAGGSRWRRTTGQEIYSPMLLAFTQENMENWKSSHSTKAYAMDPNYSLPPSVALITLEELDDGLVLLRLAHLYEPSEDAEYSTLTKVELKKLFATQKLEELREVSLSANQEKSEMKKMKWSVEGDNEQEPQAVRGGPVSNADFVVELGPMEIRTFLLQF
Assay: Jack bean α-mannosidase inhibition assay (Ki, Dixon method)
Assay type: biochemical
Conditions: for rp (relative inhibition potency): Ki (monovalent reference)/Ki (glycocluster), reference 11a for C6, 11b for C9 linker; for rp/n: relative inhibition potency/number of iminosugar units (valency-corrected)
Method: General procedure for inhibition assay
The p-nitrophenyl-α-D-mannopyranoside and α-mannosidase (EC 3.2.1.24, from jack bean, […]
The release of p-nitrophenol was measured continuously at 385 nm to determine initial velocities.[1] All kinetics were performed at 35 °C and started by substrate addition in a 1 mL assay medium (acetate buffer, 0.2 M, pH = 5) containing α-mannosidase (5 mU), substrate (varying concentration from Km/4 to Km value) in presence or absence of various concentrations of inhibitor. Ki […]
are only partially soluble in water, they were dissolved in DMSO for concentrated mother solutions and DMSO/buffer for diluted solutions with a final DMSO concentration under […]
2,5% in all vials. […]
1 Behr, J.-B.; Chevrier, C.; Defoin, A.; Tarnus, C.; Streith, J. Tetrahedron 2003, 59, 543–553.
2 Segel, I. H. Enzyme Kinetics; John Wiley & Sons, New York, 1975, p. 109–144.

[1] = α-mannosidase EC 3.2.1.24 (5 mU), substrate p-nitrophenyl-α-D-mannopyranoside Km/4 to Km, acetate buffer 0.2 M pH 5, 35 °C, p-nitrophenol release at 385 nm, DMSO under 2,5%, Dixon graphical method, determined in duplicate, read-out: Ki

Structure (SMILES) | Ki [1] | rp (relative inhibition potency) | rp/n | Ki | other results
O=C1CN(Cc2cn(CCCCCCN3C[C@H](O)[C@@H](O)[C@H](O)[C@H]3CO)nn2)C(=O)CN(Cc2cn(CCCCCCN3C[C@H](O)[C@@H](O)[C@H](O)[C@H]3CO)nn2)C(=O)CN(Cc2cn(CCCCCCN3C[C@H](O)[C@@H](O)[C@H](O)[C@H]3CO)nn2)C(=O)CN(Cc2cn(CCCCCCN3C[C@H](O)[C@@H](O)[C@H](O)[C@H]3CO)nn2)C(=O)CN(Cc2cn(CCCCCCN3C[C@H](O)[C@@H](O)[C@H](O)[C@H]3CO)nn2)C(=O)CN1Cc1cn(CCCCCCN2C[C@H](O)[C@@H](O)[C@H](O)[C@H]2CO)nn1 [Compound 10a] | 65 ± 24 µM |  |  |  | 
O=C1CN(Cc2cn(CCCCCCCCCN3C[C@H](O)[C@@H](O)[C@H](O)[C@H]3CO)nn2)C(=O)CN(Cc2cn(CCCCCCCCCN3C[C@H](O)[C@@H](O)[C@H](O)[C@H]3CO)nn2)C(=O)CN(Cc2cn(CCCCCCCCCN3C[C@H](O)[C@@H](O)[C@H](O)[C@H]3CO)nn2)C(=O)CN(Cc2cn(CCCCCCCCCN3C[C@H](O)[C@@H](O)[C@H](O)[C@H]3CO)nn2)C(=O)CN(Cc2cn(CCCCCCCCCN3C[C@H](O)[C@@H](O)[C@H](O)[C@H]3CO)nn2)C(=O)CN1Cc1cn(CCCCCCCCCN2C[C@H](O)[C@@H](O)[C@H](O)[C@H]2CO)nn1 [Compound 10b] | 11 ± 1 µM | 17 | 2.8 |  | 
O=C1CN(Cc2cn(CCCCCCN3C[C@H](O)[C@@H](O)[C@H](O)[C@H]3CO)nn2)C(=O)CN(Cc2cn(CCCCCCN3C[C@H](O)[C@@H](O)[C@H](O)[C@H]3CO)nn2)C(=O)CN(Cc2cn(CCCCCCN3C[C@H](O)[C@@H](O)[C@H](O)[C@H]3CO)nn2)C(=O)CN(Cc2cn(CCCCCCN3C[C@H](O)[C@@H](O)[C@H](O)[C@H]3CO)nn2)C(=O)CN(Cc2cn(CCCCCCN3C[C@H](O)[C@@H](O)[C@H](O)[C@H]3CO)nn2)C(=O)CN(Cc2cn(CCCCCCN3C[C@H](O)[C@@H](O)[C@H](O)[C@H]3CO)nn2)C(=O)CN(Cc2cn(CCCCCCN3C[C@H](O)[C@@H](O)[C@H](O)[C@H]3CO)nn2)C(=O)CN1Cc1cn(CCCCCCN2C[C@H](O)[C@@H](O)[C@H](O)[C@H]2CO)nn1 [Compound 10c] |  |  |  | 21 ± 2 µM | 
O=C1CN(Cc2cn(CCCCCCCCCN3C[C@H](O)[C@@H](O)[C@H](O)[C@H]3CO)nn2)C(=O)CN(Cc2cn(CCCCCCCCCN3C[C@H](O)[C@@H](O)[C@H](O)[C@H]3CO)nn2)C(=O)CN(Cc2cn(CCCCCCCCCN3C[C@H](O)[C@@H](O)[C@H](O)[C@H]3CO)nn2)C(=O)CN(Cc2cn(CCCCCCCCCN3C[C@H](O)[C@@H](O)[C@H](O)[C@H]3CO)nn2)C(=O)CN(Cc2cn(CCCCCCCCCN3C[C@H](O)[C@@H](O)[C@H](O)[C@H]3CO)nn2)C(=O)CN(Cc2cn(CCCCCCCCCN3C[C@H](O)[C@@H](O)[C@H](O)[C@H]3CO)nn2)C(=O)CN(Cc2cn(CCCCCCCCCN3C[C@H](O)[C@@H](O)[C@H](O)[C@H]3CO)nn2)C(=O)CN1Cc1cn(CCCCCCCCCN2C[C@H](O)[C@@H](O)[C@H](O)[C@H]2CO)nn1 [Compound 10d] |  |  |  | 8 ± 3 µM | 
O=C1CN(Cc2cn(CCCCCCN3C[C@H](O)[C@@H](O)[C@H](O)[C@H]3CO)nn2)C(=O)CN(Cc2cn(CCCCCCN3C[C@H](O)[C@@H](O)[C@H](O)[C@H]3CO)nn2)C(=O)CN(Cc2cn(CCCCCCN3C[C@H](O)[C@@H](O)[C@H](O)[C@H]3CO)nn2)C(=O)CN(Cc2cn(CCCCCCN3C[C@H](O)[C@@H](O)[C@H](O)[C@H]3CO)nn2)C(=O)CN(Cc2cn(CCCCCCN3C[C@H](O)[C@@H](O)[C@H](O)[C@H]3CO)nn2)C(=O)CN(Cc2cn(CCCCCCN3C[C@H](O)[C@@H](O)[C@H](O)[C@H]3CO)nn2)C(=O)CN(Cc2cn(CCCCCCN3C[C@H](O)[C@@H](O)[C@H](O)[C@H]3CO)nn2)C(=O)CN(Cc2cn(CCCCCCN3C[C@H](O)[C@@H](O)[C@H](O)[C@H]3CO)nn2)C(=O)CN(Cc2cn(CCCCCCN3C[C@H](O)[C@@H](O)[C@H](O)[C@H]3CO)nn2)C(=O)CN1Cc1cn(CCCCCCN2C[C@H](O)[C@@H](O)[C@H](O)[C@H]2CO)nn1 [Compound 10e] |  | 21 | 2.1 |  | Ki (as E1 but single determination of Ki without duplicate): 15 ± 10 µM
O=C1CN(Cc2cn(CCCCCCCCCN3C[C@H](O)[C@@H](O)[C@H](O)[C@H]3CO)nn2)C(=O)CN(Cc2cn(CCCCCCCCCN3C[C@H](O)[C@@H](O)[C@H](O)[C@H]3CO)nn2)C(=O)CN(Cc2cn(CCCCCCCCCN3C[C@H](O)[C@@H](O)[C@H](O)[C@H]3CO)nn2)C(=O)CN(Cc2cn(CCCCCCCCCN3C[C@H](O)[C@@H](O)[C@H](O)[C@H]3CO)nn2)C(=O)CN(Cc2cn(CCCCCCCCCN3C[C@H](O)[C@@H](O)[C@H](O)[C@H]3CO)nn2)C(=O)CN(Cc2cn(CCCCCCCCCN3C[C@H](O)[C@@H](O)[C@H](O)[C@H]3CO)nn2)C(=O)CN(Cc2cn(CCCCCCCCCN3C[C@H](O)[C@@H](O)[C@H](O)[C@H]3CO)nn2)C(=O)CN(Cc2cn(CCCCCCCCCN3C[C@H](O)[C@@H](O)[C@H](O)[C@H]3CO)nn2)C(=O)CN(Cc2cn(CCCCCCCCCN3C[C@H](O)[C@@H](O)[C@H](O)[C@H]3CO)nn2)C(=O)CN1Cc1cn(CCCCCCCCCN2C[C@H](O)[C@@H](O)[C@H](O)[C@H]2CO)nn1 [Compound 10f] |  |  |  | 5 ± 1 µM | 
